Experimental data from patent US6187585A, “Oligonucleotide inhibition of epidermal growth factor receptor expression” (Isis Pharmaceuticals, Inc., priority 1999, dated 2001).
Strand notation (5' to 3'): a small letter for the sugar, then the base; units joined by * are phosphorothioate-linked, units joined directly phosphodiester-linked; [ ] holds rarer units or linkages, { } end groups; capitals alone tell only the bases. d = 2'-deoxy (DNA)

Legend:
EGFR mRNA [1] = assay: EGFR mRNA inhibition, Northern blot, SKOV3 human ovarian carcinoma cells; type: cell-based; settings: for % Inhibition of EGFR mRNA (10 kb band): 300 nM oligonucleotide, 15 μg/ml LIPOFECTIN, relative to untreated control, normalized to β-actin
EGFR mRNA [2] = assay: EGFR mRNA inhibition, Northern blot, A549 human lung carcinoma cells; type: cell-based; settings: for % Inhibition of EGFR mRNA (10 kb band): 300 nM oligonucleotide, 15 μg/ml LIPOFECTIN, relative to untreated control, normalized to G3PDH
EGFR mRNA [3] = assay: EGFR mRNA, Northern blot, both cell types together (A549 and SKOV3); type: cell-based, human; settings: 300 nM
Procedure: SKOV3 and A549 cells were grown in T-75 flasks until 65-75% confluent. The cells were washed once with serum-free OPTI-MEM® medium (Life Technologies, Inc., Grand Island, N.Y.) and 5 ml of the serum-free OPTI-MEM® containing 15 μg/ml of LIPOFECTIN® reagent (a 1:1 liposome formulation of the cationic lipid DOTMA and DOPE, Life Technologies, Inc.) was added. At that time, 300 nM of oligonucleotide was added and swirled vigorously. After a 4-5 hour incubation at 37° C., the solution was removed and fresh maintenance medium containing 10% fetal bovine serum was added. The cells were again incubated overnight at 37° in 5% CO2, after which the cells were assayed for EGFR MRNA expression or cell growth.
Total mRNA was extracted from the cells. For SKOV3 cells, cells were washed twice with PBS and 1-2 ml of RNAZOL B® (Tel-Test, Inc., Friendswood Tex.) was added. An incubation at 4° C. for 5-30 minutes was done and the cells were scraped into an Eppendorf tube. This solution was frozen at -80° C. for 20 minutes, thawed and chloroform (200 μl/ml) was added. The solution was centrifuged at 12,000×g for 15 minutes at 4° C. and the aqueous layer was transferred to a clean Eppendorf tube. An equal volume of isopropanol was added and incubated at room temperature for 15 minutes. Another centrifugation at 12,000×g for 15 minutes at 4° C. was done. The pellet was washed with 500 μl of 75% ethanol and centrifuged at 7500×g for 5 minutes at 4° C. As much of the supernatant as possible was removed and the pellet was resuspended in 30 μl of double distilled water. For A549 cells, total mRNA was extracted using a guanidinium/cesium chloride extraction protocol as described by Dean et al., J. Biol. Chem., 1994, 269, 16416. Ten μg of this mRNA was resolved on a 1.0% agarose gel containing 3.0% formaldehyde and transferred to a nylon membrane. […] The membrane was exposed to autoradiography film at -80° C. and the MRNA bands quantitated using a densitometer (Molecular Dynamics). Blots were stripped of radioactivity by boiling and then reprobed with a ^32 P-labeled control probe which hybridized either to G3PDH (Clontech Laboratories, Inc., Palo Alto Calif.) or β-actin (Ambion, Austin Tex.).
Some of the oligonucleotides in Table 1 were tested for their ability to inhibit EGFR mRNA expression in A549 human lung carcinoma cells and SKOV3 human ovarian carcinoma cells, both of which overexpress the EGFR. […] Total RNA was extracted and quantitated by Northern blot analysis, using PCR-generated EGFR cDNA probes. Bands were quantitated on a densitometer and normalized to control probe bands (G3PDH for the A549 cells and β-actin for the SKOV3 cells). […]

EGFR protein = EGFR protein synthesis, metabolic labeling and immunoprecipitation, SKOV3 cells; type: cell-based, human; settings: 35S-methionine labeling, compared to untreated cells
Procedure: Human SKOV3 ovarian carcinoma cells were obtained from the American Type Culture Collection. They were grown in McCoy's 5A medium containing NaHCO3, 10% fetal bovine serum and antibiotics and routinely passaged. A549 human lung carcinoma cells were routinely passaged in DMEM medium supplemented with 10% fetal bovine serum.
SKOV3 cells were treated with the indicated oligonucleotides in serum-free, methionine-free OPTI-MEM® medium for 2.5 hours. The medium was then replaced with methionine-free OPTI-MEM® containing ^35 S-methionine (100 μCi/ml) and 2% dialyzed fetal bovine serum for 10 hours. Cell extracts were prepared as described by Kumar et al., Proc. Natl. Acad. Sci. USA, 1992, 89, 6599. Aliquots containing equal amounts of trichloroacetic acid-precipitable counts per minute were subjected to immunoprecipitation with anti-EGFR monoclonal antibody 528/rabbit anti-mouse IgG/protein A-Sepharose conjugate. Kumar et al., Proc. Natl. Acad. Sci. USA, 1992, 89, 6599 and Korutla et al., Carcinogenesis, 1995, 16, 1741. Lysates containing equal amounts of protein were also resolved on a 10% SDS-polyacrylamide gel and stained with Coomassie blue.
ISIS 10563, ISIS 12876 and ISIS 12877 were added to exponentially growing SKOV3 cells. Cells were metabolically labeled with ^35 S-methionine and newly synthesized EGFR protein was immunoprecipitated. […] Coomassie blue staining confirmed that proteins other than EGFR were not affected by treatment of cells with antisense oligonucleotides.

A431 cells = settings: cited from earlier work
EGFR tyrosine kinase = settings: cited from earlier work
[4] = 300 nM, scrambled control, 10 kb band

Compound | % Inhibition of EGFR mRNA (10 kb band) (EGFR mRNA [1]) | % Inhibition of EGFR mRNA (10 kb band) (EGFR mRNA [2]) | reduction of EGFR mRNA expression, ranking in words (EGFR mRNA [3]) | reduction of EGFR protein production / EGFR synthesis (EGFR protein) | further results
ISIS 12875: CCCCAGCAGCTCCCAUUGGG; 2'-fluoro; phosphorothioate; coding region, Ullrich 769-788 (all phosphorothioate, sugars by position and methylation of C not given here; 2'-fluoro modification, further chemistry not fully specified) | 57% | 77% | slightly less potent | – | –
ISIS 10563: CCCCAGCAGCTCCCATTGGG; phosphorothioate deoxyoligonucleotide; coding region, Ullrich 769-788 (antisense dC*dC*dC*dC*dA*dG*dC*dA*dG*dC*dT*dC*dC*dC*dA*dT*dT*dG*dG*dG) | 61% | 95% | greatest amount of reduction of EGFR mRNA expression in both cell types | 90-98% | –
ISIS 10561: TGTCGGCCCCACAGGCTCGG; phosphorothioate 2'-deoxy; coding region, Ullrich 1110-1129 (antisense dT*dG*dT*dC*dG*dG*dC*dC*dC*dC*dA*dC*dA*dG*dG*dC*dT*dC*dG*dG) | 45% | greater than 50% | – | – | % Inhibition of EGFR mRNA (10 kb band) (EGFR mRNA [2]; listed as 10561): 75%
ISIS 12139: GAGTTCGCGTCCTTTCTCCA; scrambled control; phosphorothioate (all phosphorothioate, sugars by position and methylation of C not given here) [reference compound] | – | – | – | 10% | increase in EGFR mRNA compared to untreated controls (EGFR mRNA [1]; [4]): 39%; increase in EGFR mRNA compared to untreated controls (EGFR mRNA [2]; [4]): 18%
ISIS 12878: GAGGCGTTCTCCTUUCUCCA; 2'-O-propyl; phosphorothioate; coding region, Ullrich 2966-2985 (all phosphorothioate, sugars by position and methylation of C not given here; 2'-O-propyl modification, further chemistry not fully specified) | 22% | greater than 50% | – | – | % Inhibition of EGFR mRNA (10 kb band) (EGFR mRNA [2]; listed as 12878): 66%
ISIS 10565: CTCGGCTGACATTCCGGCAA; phosphorothioate 2'-deoxy; coding region, Ullrich 1761-1780 (antisense dC*dT*dC*dG*dG*dC*dT*dG*dA*dC*dA*dT*dT*dC*dC*dG*dG*dC*dA*dA) | 33% | 43% | – | – | –
ISIS 12876: CCCCAGCAGCTCCCATTGGG; 5-methyl C; phosphorothioate; coding region, Ullrich 769-788 (all C 5-methyl, all phosphorothioate, sugars by position not given here) | 66% | 97% | greatest amount of reduction of EGFR mRNA expression in both cell types | 90-98% | –
COc1cc2ncnc(Nc3cccc(Br)c3)c2cc1OC [PD153035] | – | – | – | – | inhibition of the growth of A431 cells in nude mice (A431 cells): can inhibit the growth of A431 cells in nude mice; inhibition of EGFR tyrosine kinase activity (EGFR tyrosine kinase): inhibits EGFR tyrosine kinase activity
ISIS 12877: CUCGGCTGACATTCCGGCAA; 2'-fluoro; phosphorothioate (all phosphorothioate, sugars by position and methylation of C not given here; 2'-fluoro modification, further chemistry not fully specified) | 61% | 93% | greatest amount of reduction of EGFR mRNA expression in both cell types | 90-98% | –
